{"source": "patent US7700592B2", "about": "“α2C adrenoreceptor agonists” (Schering Corporation, priority 2005, dated 2010)"}
{"biological_target": "T1, α2C receptor (Homo sapiens, UniProt P18825)", "T1 sequence (P18825 1-462)": "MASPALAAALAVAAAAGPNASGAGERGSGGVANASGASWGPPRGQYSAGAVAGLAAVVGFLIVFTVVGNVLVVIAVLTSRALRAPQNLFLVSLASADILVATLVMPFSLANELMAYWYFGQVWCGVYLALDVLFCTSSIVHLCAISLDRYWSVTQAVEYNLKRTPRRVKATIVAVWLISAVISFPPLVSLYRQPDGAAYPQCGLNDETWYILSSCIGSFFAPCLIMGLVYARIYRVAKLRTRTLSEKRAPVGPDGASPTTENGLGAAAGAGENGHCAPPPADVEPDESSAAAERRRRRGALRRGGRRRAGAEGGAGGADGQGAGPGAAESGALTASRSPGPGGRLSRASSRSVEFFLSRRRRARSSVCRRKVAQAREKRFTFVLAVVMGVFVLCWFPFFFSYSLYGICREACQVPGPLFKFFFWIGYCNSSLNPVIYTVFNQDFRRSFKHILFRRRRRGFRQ", "assay": "GTPγS assay, efficacy agonist activity (Emax) for α2C", "format": "biochemical", "conditions": "active agonist = efficacy at α2C ≧30% Emax; functionally selective = additionally efficacy at α2A ≦30% Emax (GTPγS assay)", "from_the_text": "For the purposes of this present invention, a compound is defined to be an active agonist of the α2C receptor subtype if the compound's efficacy at the α2C receptor is ≧30% Emax (GTPγS assay). A compound is a functionally selective agonist of the α2C receptor subtype over the α2A receptor subtype if the compound's efficacy at the α2C receptor is ≧30% Emax (GTPγS assay) and its efficacy at the α2A receptor is ≦30% Emax (GTPγS assay).\nEfficacy agonist activity values (Emax, GTPγS assay) for α2C were determined by following the general procedure detailed by Umland et al (“Receptor reserve analysis of the human α2c-adrenoceptor using [^35S]GTPγS and cAMP functional assays” European Journal of Pharmacology 2001, 411, 211-221). For the purposes of the present invention, a compound is defined to be an active agonist of the α2C receptor subtype if the compound's efficacy at the α2C receptor is ≧30% Emax (GTPγS assay). A compound is a functionally selective agonist of the α2C receptor subtype over the α2A receptor subtype if the compound's efficacy at the α2C receptor is […] Emax (GTPγS assay) and its efficacy at the α2A receptor is ≦30% Emax (GTPγS assay)."}
{"smiles": "c1ccc2c(c1)OCCN2Cc1c[nH]cn1", "note": "[Compound 1]", "Efficacy agonist activity (Emax, GTPγS assay) for α2C: evaluated as active or functionally selective agonist": "active or functionally selective agonists of the α2C receptor subtype"}
{"smiles": "O=[N+]([O-])c1ccc2c(c1)N(Cc1c[nH]cn1)CCO2", "note": "[Compound 3D]", "Efficacy agonist activity (Emax, GTPγS assay) for α2C: evaluated as active or functionally selective agonist": "active or functionally selective agonists of the α2C receptor subtype"}
{"smiles": "Nc1ccc2c(c1)N(Cc1c[nH]cn1)CCO2", "note": "[Compound 3E]", "Efficacy agonist activity (Emax, GTPγS assay) for α2C: evaluated as active or functionally selective agonist": "active or functionally selective agonists of the α2C receptor subtype"}
{"smiles": "COC(=O)Nc1ccc2c(c1)N(Cc1c[nH]cn1)CCO2", "note": "[Compound 3]", "Efficacy agonist activity (Emax, GTPγS assay) for α2C: evaluated as active or functionally selective agonist": "active or functionally selective agonists of the α2C receptor subtype"}
{"smiles": "CNC(=O)Nc1ccc2c(c1)N(Cc1c[nH]cn1)CCO2", "note": "[Compound 5]", "Efficacy agonist activity (Emax, GTPγS assay) for α2C: evaluated as active or functionally selective agonist": "active or functionally selective agonists of the α2C receptor subtype"}
{"smiles": "COC(=O)N(C)c1ccc2c(c1)N(Cc1c[nH]cn1)CCO2", "note": "[Compound 6E]", "Efficacy agonist activity (Emax, GTPγS assay) for α2C: evaluated as active or functionally selective agonist": "active or functionally selective agonists of the α2C receptor subtype"}
{"smiles": "CNC(=O)N(C)c1ccc2c(c1)N(Cc1c[nH]cn1)CCO2", "note": "[Compound 6]", "Efficacy agonist activity (Emax, GTPγS assay) for α2C: evaluated as active or functionally selective agonist": "active or functionally selective agonists of the α2C receptor subtype"}
{"smiles": "CCNC(=O)N(C)c1ccc2c(c1)N(Cc1c[nH]cn1)CCO2", "note": "[Compound 7]", "Efficacy agonist activity (Emax, GTPγS assay) for α2C: evaluated as active or functionally selective agonist": "active or functionally selective agonists of the α2C receptor subtype"}
{"smiles": "CCOC(=O)N(C)c1ccc2c(c1)N(Cc1c[nH]cn1)CCO2", "note": "[Compound 8]", "Efficacy agonist activity (Emax, GTPγS assay) for α2C: evaluated as active or functionally selective agonist": "active or functionally selective agonists of the α2C receptor subtype"}
{"smiles": "N#Cc1ccc2c(c1)N(Cc1c[nH]cn1)CCO2", "note": "[Compound 12]", "Efficacy agonist activity (Emax, GTPγS assay) for α2C: evaluated as active or functionally selective agonist": "active or functionally selective agonists of the α2C receptor subtype"}
{"smiles": "N=C(N)c1ccc2c(c1)N(Cc1c[nH]cn1)CCO2", "note": "[Compound 13]", "Efficacy agonist activity (Emax, GTPγS assay) for α2C: evaluated as active or functionally selective agonist": "active or functionally selective agonists of the α2C receptor subtype"}
{"smiles": "CSc1ccc2c(c1)N(Cc1c[nH]cn1)CCO2", "note": "[Compound 14B]", "Efficacy agonist activity (Emax, GTPγS assay) for α2C: evaluated as active or functionally selective agonist": "active or functionally selective agonists of the α2C receptor subtype"}
{"smiles": "CS(=O)(=O)c1ccc2c(c1)N(Cc1c[nH]cn1)CCO2", "note": "[Compound 14]", "Efficacy agonist activity (Emax, GTPγS assay) for α2C: evaluated as active or functionally selective agonist": "active or functionally selective agonists of the α2C receptor subtype"}
{"smiles": "c1c[nH]c(-c2ccc3c(c2)N(Cc2c[nH]cn2)CCO3)c1", "note": "[Compound 15]", "Efficacy agonist activity (Emax, GTPγS assay) for α2C: evaluated as active or functionally selective agonist": "active or functionally selective agonists of the α2C receptor subtype"}
{"smiles": "O=[N+]([O-])c1cc(F)c2c(c1)N(Cc1c[nH]cn1)CCO2", "note": "[Compound 19D]", "Efficacy agonist activity (Emax, GTPγS assay) for α2C: evaluated as active or functionally selective agonist": "active or functionally selective agonists of the α2C receptor subtype"}
{"smiles": "COC(=O)Nc1cc(F)c2c(c1)N(Cc1c[nH]cn1)CCO2", "note": "[Compound 19]", "Efficacy agonist activity (Emax, GTPγS assay) for α2C: evaluated as active or functionally selective agonist": "active or functionally selective agonists of the α2C receptor subtype"}
{"smiles": "COC(=O)Nc1cc(Cl)c2c(c1)N(Cc1c[nH]cn1)CCO2", "note": "[Compound 20]", "Efficacy agonist activity (Emax, GTPγS assay) for α2C: evaluated as active or functionally selective agonist": "active or functionally selective agonists of the α2C receptor subtype"}
{"smiles": "COC(=O)Nc1cc2c(cc1F)OCCN2Cc1c[nH]cn1", "note": "[Compound 21]", "Efficacy agonist activity (Emax, GTPγS assay) for α2C: evaluated as active or functionally selective agonist": "active or functionally selective agonists of the α2C receptor subtype"}
{"smiles": "O=[N+]([O-])c1ccc2c(n1)N(Cc1c[nH]cn1)CCO2", "note": "[Compound 22]", "Efficacy agonist activity (Emax, GTPγS assay) for α2C: evaluated as active or functionally selective agonist": "active or functionally selective agonists of the α2C receptor subtype"}
{"smiles": "Nc1ccc2c(c1)N(Cc1c[nH]cn1)CCS2", "note": "[Compound 24D]", "Efficacy agonist activity (Emax, GTPγS assay) for α2C: evaluated as active or functionally selective agonist": "active or functionally selective agonists of the α2C receptor subtype"}
{"smiles": "COC(=O)Nc1ccc2c(c1)N(Cc1c[nH]cn1)CCS2", "note": "[Compound 24]", "Efficacy agonist activity (Emax, GTPγS assay) for α2C: evaluated as active or functionally selective agonist": "active or functionally selective agonists of the α2C receptor subtype"}
{"smiles": "c1ccc2c(c1)SCCN2Cc1c[nH]cn1", "note": "[Compound 25B]", "Efficacy agonist activity (Emax, GTPγS assay) for α2C: evaluated as active or functionally selective agonist": "active or functionally selective agonists of the α2C receptor subtype"}
{"smiles": "c1ccc2c(c1)NCCN2Cc1c[nH]cn1", "note": "[Compound 26A]", "Efficacy agonist activity (Emax, GTPγS assay) for α2C: evaluated as active or functionally selective agonist": "active or functionally selective agonists of the α2C receptor subtype"}
{"smiles": "COC(=O)N1CCN(Cc2c[nH]cn2)c2ccccc21", "note": "[Compound 26B]", "Efficacy agonist activity (Emax, GTPγS assay) for α2C: evaluated as active or functionally selective agonist": "active or functionally selective agonists of the α2C receptor subtype"}
{"smiles": "CN1CCN(Cc2c[nH]cn2)c2ccccc21", "note": "[Compound 26]", "Efficacy agonist activity (Emax, GTPγS assay) for α2C: evaluated as active or functionally selective agonist": "active or functionally selective agonists of the α2C receptor subtype"}
{"smiles": "CC(=O)N1CCN(Cc2c[nH]cn2)c2ccccc21", "note": "[Compound 27E]", "Efficacy agonist activity (Emax, GTPγS assay) for α2C: evaluated as active or functionally selective agonist": "active or functionally selective agonists of the α2C receptor subtype"}
{"smiles": "O=[N+]([O-])c1ccc2c(c1)N(Cc1c[nH]cn1)CCCO2", "note": "[Compound 28D]", "Efficacy agonist activity (Emax, GTPγS assay) for α2C: evaluated as active or functionally selective agonist": "active or functionally selective agonists of the α2C receptor subtype"}
{"smiles": "COC(=O)Nc1ccc2c(c1)N(Cc1c[nH]cn1)CCCO2", "note": "[Compound 28]", "Efficacy agonist activity (Emax, GTPγS assay) for α2C: evaluated as active or functionally selective agonist": "active or functionally selective agonists of the α2C receptor subtype"}
{"smiles": "CCOC(=O)Cc1ccc2c(c1)N(Cc1c[nH]cn1)CCO2", "note": "[Compound 29]", "Efficacy agonist activity (Emax, GTPγS assay) for α2C: evaluated as active or functionally selective agonist": "active or functionally selective agonists of the α2C receptor subtype"}
{"smiles": "O=C(Cc1ccc2c(c1)N(Cc1c[nH]cn1)CCO2)NCc1ccccc1", "note": "[Compound 30]", "Efficacy agonist activity (Emax, GTPγS assay) for α2C: evaluated as active or functionally selective agonist": "active or functionally selective agonists of the α2C receptor subtype"}
{"smiles": "O=[N+]([O-])c1ccc2c(c1)N(CCc1c[nH]cn1)CCO2", "note": "[Compound 37]", "Efficacy agonist activity (Emax, GTPγS assay) for α2C: evaluated as active or functionally selective agonist": "active or functionally selective agonists of the α2C receptor subtype"}
{"smiles": "CCN(C(=O)NC)c1ccc2c(c1)N(Cc1c[nH]cn1)CCO2", "note": "[Compound 38]", "Efficacy agonist activity (Emax, GTPγS assay) for α2C: evaluated as active or functionally selective agonist": "active or functionally selective agonists of the α2C receptor subtype"}
{"smiles": "CNC(=O)N(c1ccc2c(c1)N(Cc1c[nH]cn1)CCO2)C(C)C", "note": "[Compound 46]", "Efficacy agonist activity (Emax, GTPγS assay) for α2C: evaluated as active or functionally selective agonist": "active or functionally selective agonists of the α2C receptor subtype"}
{"smiles": "CNC(=O)Nc1ccc2c(n1)N(Cc1c[nH]cn1)CCO2", "note": "[Compound 51]", "Efficacy agonist activity (Emax, GTPγS assay) for α2C: evaluated as active or functionally selective agonist": "active or functionally selective agonists of the α2C receptor subtype"}
{"smiles": "CCN(C(=O)OC)c1ccc2c(n1)N(Cc1c[nH]cn1)CCO2", "note": "[Compound 53]", "Efficacy agonist activity (Emax, GTPγS assay) for α2C: evaluated as active or functionally selective agonist": "active or functionally selective agonists of the α2C receptor subtype"}
{"smiles": "Brc1ccc2c(n1)N(Cc1c[nH]cn1)CCO2", "note": "[Compound 54]", "Efficacy agonist activity (Emax, GTPγS assay) for α2C: evaluated as active or functionally selective agonist": "active or functionally selective agonists of the α2C receptor subtype"}
